Measurements from PubChem BioAssay (NCI).
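GI50: concentration for 50% inhibition of growth. TGI is the concentration that stops growth completely.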

Assays:
Assay in all cases: inhibition of tumour cell growth, NCI panel, 384-well format
[1] = system: HOP-62 NSCLC
[2] = system: MOLT-4 leukemia
[3] = system: SK-MEL-28 melanoma
[4] = system: SNB-19 CNS
[5] = system: OVCAR-8 ovarian
[6] = system: T-47D breast
[7] = system: HL-60(TB) leukemia
[8] = system: SK-OV-3 ovarian
[9] = system: TK-10 renal
[10] = system: PC-3 prostate
[11] = system: HCT-116 colon
[12] = system: IGROV1 ovarian
[13] = system: A498 renal
[14] = system: MDA-MB-231 breast
[15] = system: ACHN renal
[16] = system: M14 melanoma
[17] = system: KM12 colon
[18] = system: MDA-MB-435 melanoma
[19] = system: CCRF-CEM leukemia
[20] = system: UACC-257 melanoma
[21] = system: BT-549 breast
[22] = system: NCI-H460 NSCLC
[23] = system: EKVX NSCLC
[24] = system: NCI-H226 lung
[25] = system: OVCAR-4 ovarian
[26] = system: UO-31 renal
[27] = system: MALME-3M melanoma
[28] = system: OVCAR-5 ovarian
[29] = system: HT29 colon
[30] = system: SK-MEL-5 melanoma
[31] = system: MCF7 breast
[32] = system: K-562 leukemia
[33] = system: RPMI-8226 leukemia
[34] = system: NCI-H23 lung
[35] = system: HOP-92 NSCLC
[36] = system: LOX IMVI melanoma
[37] = system: UACC-62 melanoma
[38] = system: NCI-H322M lung
[39] = system: A549 NSCLC
[40] = system: SNB-75 CNS
[41] = system: 786-0 renal
[42] = system: SF-295 CNS
[43] = system: HS 578T breast
[44] = system: RXF 393 renal
[45] = system: SN12C renal
[46] = system: OVCAR-3 ovarian
[47] = system: NCI-H522 lung
[48] = system: CAKI-1 renal
[49] = system: COLO 205 colon
[50] = system: DU-145 prostate
[51] = system: HCT-15 colon
[52] = system: HCC-2998 colon
[53] = system: NCI/ADR-RES ovarian

COc1cc(S(C)(=O)=O)ccc1Nc1nc2ccc(-c3ccc(NC(=O)[C@H](C)c4ccc(F)cc4)cc3)cn2n1
GI50 [1]: 0.0771 µM | TGI [1]: > 100 µM | GI50 [2]: 0.0201 µM | TGI [2]: 0.0417 µM | GI50 [3]: > 100 µM | TGI [3]: > 100 µM | GI50 [4]: > 100 µM | TGI [4]: > 100 µM | GI50 [5]: 1.19 µM | TGI [5]: > 100 µM | GI50 [6]: 4.78 µM | TGI [6]: > 100 µM | GI50 [7]: 0.0454 µM | TGI [7]: > 100 µM | GI50 [8]: > 100 µM | TGI [8]: > 100 µM | GI50 [9]: > 100 µM | TGI [9]: > 100 µM | GI50 [10]: 69 µM | TGI [10]: > 100 µM | GI50 [11]: 0.0642 µM | TGI [11]: > 100 µM | GI50 [12]: > 100 µM | TGI [12]: > 100 µM | GI50 [13]: > 100 µM | TGI [13]: > 100 µM | GI50 [14]: > 100 µM | TGI [14]: > 100 µM | GI50 [15]: > 100 µM | TGI [15]: > 100 µM | GI50 [16]: > 100 µM | TGI [16]: > 100 µM | GI50 [17]: 61.7 µM | TGI [17]: > 100 µM | GI50 [18]: > 100 µM | TGI [18]: > 100 µM | GI50 [19]: 0.0293 µM | TGI [19]: 0.0694 µM | GI50 [20]: > 100 µM | TGI [20]: > 100 µM | GI50 [21]: 32.5 µM | TGI [21]: > 100 µM | GI50 [22]: 0.0406 µM | TGI [22]: > 100 µM | GI50 [23]: > 100 µM | TGI [23]: > 100 µM | GI50 [24]: > 100 µM | TGI [24]: > 100 µM | GI50 [25]: > 100 µM | TGI [25]: > 100 µM | GI50 [26]: 22.4 µM | TGI [26]: > 100 µM | GI50 [27]: 58.2 µM | TGI [27]: > 100 µM | GI50 [28]: > 100 µM | TGI [28]: > 100 µM | GI50 [29]: 0.602 µM | TGI [29]: > 100 µM | GI50 [30]: 1.54 µM | TGI [30]: > 100 µM | GI50 [31]: 4.61 µM | TGI [31]: > 100 µM | GI50 [32]: 0.777 µM | TGI [32]: > 100 µM | GI50 [33]: 0.137 µM | TGI [33]: > 100 µM | GI50 [34]: > 100 µM | TGI [34]: > 100 µM | GI50 [35]: 42.1 µM | TGI [35]: > 100 µM | GI50 [36]: 0.053 µM | TGI [36]: > 100 µM | GI50 [37]: > 100 µM | TGI [37]: > 100 µM | GI50 [38]: > 100 µM | TGI [38]: > 100 µM | GI50 [39]: 0.0517 µM | TGI [39]: > 100 µM | GI50 [40]: 75.9 µM | TGI [40]: > 100 µM | GI50 [41]: 1.73 µM | TGI [41]: > 100 µM | GI50 [42]: > 100 µM | TGI [42]: > 100 µM | GI50 [43]: 17.4 µM | TGI [43]: > 100 µM | GI50 [44]: 0.0742 µM | TGI [44]: 6.48 µM | GI50 [45]: > 100 µM | TGI [45]: > 100 µM | GI50 [46]: > 100 µM | TGI [46]: > 100 µM | GI50 [47]: > 100 µM | TGI [47]: > 100 µM | GI50 [48]: > 100 µM | TGI [48]: > 100 µM | GI50 [49]: 0.0428 µM | TGI [49]: > 100 µM | GI50 [50]: 5.41 µM | TGI [50]: > 100 µM | GI50 [51]: 0.0587 µM | TGI [51]: > 100 µM | GI50 [52]: > 100 µM | TGI [52]: > 100 µM | GI50 [53]: 1.4 µM | TGI [53]: > 100 µM
